Test results as given in US20030229037A1, “Novel cationic amphiphiles” (priority 2000, published 2003).

Legend:
[1] = test system: COS-7 cells; assay: Transfection of COS-7 cells with lipid/DNA lipoplexes (luciferase reporter plasmid pCMXluc), efficiency relative to DOTAP; assay type: cell-based, green meerkat; settings: for relative transfection efficiency (maximum): COS-7, pCMXluc, cationic lipid/DOPE 1:1, most effective lipid/DNA ratio of 1:1 to 15:1, 48 h, RLU/µg protein based on DOTAP = 100%
Experimental: A transfection experiment with cationic lipids can be broken down into four different individual steps. An important prerequisite for the success of a transfection experiment is the successful preparation of liposomes from the lipids to be tested (Step 1). DNA dissolved in buffer is then added to these liposomes, forming lipid/DNA complexes called lipoplexes (Step 2). The lipoplexes are then added to the cells (Step 3). The lipoplexes mediate the uptake of the DNA in the cell. Finally, the success of a transfection is quantified by determining the quantity of gene product forms and any toxicity that may occur is quantified by measuring the quantity of total protein (Step 4).
A reporter plasmid pCMXluc containing 8,600 base pairs (provided by R. Schüle) that codes for the enzyme luciferase was used to manufacture the lipoplexes. The composition of the lipoplexes and especially the proportion of lipid/DNA [Weibel et al., 1995; Felgner et al., 1994] are critical factors for obtaining a high level of protein expression. The number of negative charges of the plasmid used (one negatively-charged phosphate group per base) and the number of positive charges caused by adding cationic liposomes were used to calculate the proportion of lipid/DNA. For polycationic lipids, the number of all amino functions contained in the head group was made equal to the number of positive charges per lipid. Eight different lipoplexes with charge ratios from 1:1 to 15:1 were manufactured for each cationic lipid. In this process, each lipoplex received the same quantity of DNA but different quantities of lipid. An overview of the model calculation of various proportions of lipid/DNA is presented below.
After the plasmid (dissolved in buffer) was added to the liposomes, a pipette was used to carefully mix the formulation. It was then allowed to stand at room temperature for 60 minutes to allow the lipoplexes to form. The ripening conditions used here to prepare lipoplexes are based on findings described earlier [Yang and Huang, 1998] and also represent the result of a systematic optimization of lipoplex ripening conditions that were determined using a simple cationic lipid and a tricationic lipid, and which were used here to prepare all lipoplexes [Regelin, 2000].
The COS-7 cell line (kidney cells from the green meerkat, fibroblast-like cells) which is often used in transfection studies [You et al., 1999; Yu et al., 1999] was used for the cell experiments. This cell line is known to be easy to transfect and grows adherently. It was therefore expected that transfection data could be matched up with all synthesized cationic lipids, and that structure/effectiveness relationships could therefore be identified. The cell experiments were carried out in 96-well microtiter plates with 5,000 cells per well. Cell density has a considerable influence on the success of a transfection experiment when COS-7 cells are used [Deshmukh and Huang, 1997]: on the one hand, cells that are sowed too densely are harder to transfect than less densely sowed cells due to their reduced tendency to divide. While it is not the intention of the applicant to be bound to any particular theory, nor to affect in any measure the scope of the appended claims, it is presently believed that the explanation lies in that plasmids pass more easily into the nucleus of dividing cells [Mortimer et al., 1999], because the […] becomes full of holes or is dissolved during cell division. On the other hand, transfections of cells that have a very low cell density are often associated with elevated cytotoxicity, because more lipoplexes are now available per cell. A moderate cell density of 40-50% confluence, at which a sufficient level of cell division is observed, was selected for the transfection experiments to be carried out as part of this work. […]

[2] = Liposome preparation (lipid film hydration, ultrasound) and size distribution by photon correlation spectroscopy; assay type: physicochemical; settings: equimolar DOPE, HBS buffer pH 7.4, ultrasound bath
Experimental: Preferably, the cationic amphiphile and helper lipid are present in a molar mixing ratio of from about five to one to about one to five. More preferably, the cationic amphiphile and helper lipid are present in a molar mixing ratio of from about two to one to about one to two. Still more preferably, the molar mixing ratio of cationic amphiphile to helper lipid is about 1:1. To prepare liposomes, the cationic lipid to be tested and a helper lipid were dissolved in an organic solvent (e.g., chloroform/methanol mixtures).
The lipid films can be hydrated by adding buffer, which also gives rise to multilamellar vesicles (MLV). The MLV are then converted into small unilamellar vesicles (SUV) via ultrasonic treatment. [Moog, 1999; Lasic, 1994 and 1995]. The duration of exposure to ultrasound required until a homogenous population of SUV formed depended on the strength of the ultrasound bath. When a common commercial ultrasound bath was used, the process lasted 15-20 minutes. When a high performance ultrasound bath from Bandelin was used (which is also used to homogenize tissue samples) the same results were obtained after just 2 minutes. All liposomes were characterized by measuring their size distribution using photon correlation spectroscopy. In this process, the sizes of liposomes found were preferably between about 20 and about 200 nm, more preferably between about 50 and about 150 nanometers.
To make the liposome preparation, dissolve 1.29 μmol of the simple cationic lipid to be tested (bicationic: 0.645 μmol, tricationic: 0.43 μmol) in chloroform/methanol (2:1 v/v) in a test tube with an equimolar quantity of DOPE. Use the simple cationic lipid DOTAP without the addition of DOPE.
Slowly blow off the organic solvent with a TCS sample preparation system (Vapotherm, BARLEY, Bielefeld, Germany) using nitrogen (30-60 minutes) at room temperature. The dried lipid films can be stored for many months at −20° C. […]

[3] = test system: COS-7 cells; assay: Total protein quantity per well (BCA test) as measure of cytotoxicity of the lipoplexes; assay type: cell-based, green meerkat; settings: COS-7, lipid/DOPE 1:1 lipoplexes, 48 h
Experimental: 48 hours after the lipoplexes were added, the medium was removed and the cells were washed, because the medium would interfere with the tests to determine the transfection data. The cells were then lysed in order to make a homogeneous cell protein solution. The lysate of every single well was distributed and the total quantity of protein and the luciferase activity were determined in independent assays.
The total protein quantity was determined using the BCA test with bovine serum albumin as the standard and indicated in the unit μg/well. The protein quantity measured correlates with the number of adherent, living cells still present after transfection and can therefore be used as a measure of toxicity of the respective lipoplexes [Gao and Huang, 1991]. Comparisons of the protein quantities measured with results from cytotoxicity assays that were performed [Regelin, 2000] verify this relationship. The measured values were used in the calculation of transfection efficiency (see below).
Remove the supernatant medium completely, wash the cells once with a 0.9% NaCl solution, then add 50 μl lysis buffer (ROCHE, Germany) per well. […] Use a BCA test (PIERCE, Rockford, USA) to determine the quantity of total protein per well. […] Determine the protein concentration using the calibration curve in the spectral photometer (Spectra, TECAN, Germany) by quantifying the absorption at λ=550 nm.

[4] = amino groups, aqueous solution; literature values; cited from earlier work

Compound	relative transfection efficiency (maximum) [1]	liposome formation in mixture with DOPE [2]	also measured
CCCCCCCCCCCCCCOCC(COC(=O)CNCCCCNCCCN)OCCCCCCCCCCCCCC.O=CO (stereo not shown) [lipid 115, 10-((2,3-di-tetradecyloxy)-propyloxcarbonylmethyl)-1,5,10-triazadekan formic acid salt]	135%	–	–
CCCCCCCCCCCCCCOCC(COC(=O)C[N+](C)(C)C)OCCCCCCCCCCCCCC (stereo not shown) [compound 111]	83%	used successfully in a mixture with DOPE to prepare liposomes	–
CCCCCCCCCCCCCCOCC(COC(=O)CN(C)C)OCCCCCCCCCCCCCC (stereo not shown) [compound 110]	only very low transfection efficiencies	formed no liposomes	–
CCCCCCCC/C=C\CCCCCCCC(=O)OCC(C[N+](C)(C)C)OC(=O)CCCCCCC/C=C\CCCCCCCC.[Cl-] (stereo not shown) [DOTAP, N-[1-(2,3-dioleoyloxy)propyl]-N,N,N-trimethylammoniumchloride, reference compound]	–	–	transfection efficiency of the standard lipid (defined as 100%) ([1]; DOTAP without DOPE, lipid/DNA 2.5:1, COS-7, external standard in each microtiter plate): 100%
CC(C)CCC[C@@H](C)[C@H]1CC[C@H]2[C@@H]3CC=C4C[C@@H](OC(=O)CN(C)C)CC[C@]4(C)[C@H]3CC[C@]12C [lipid 4, N-Cholesteryloxycarbonylmethyl-N,N-dimethylamine]	did not result in a single transfection	liposomes could not be prepared	cytotoxicity of the lipoplexes (total protein quantity) [3]: No cytotoxicity was observed
CN(C)C [trimethylamine]	–	–	pKa [4]: ~10
NCCCCNCCCN [Spermidine]	–	–	pKa [4]: above 8
Lipid A	approx. 300%	–	cytotoxicity of the lipoplexes (total protein quantity) [3]: do not exhibit elevated cytotoxicities
